Usually EC50 stands for the concentration at which the effect is half-maximal.

Data on 13 compounds can be found in patent US8906889B2, “C-3 cycloalkenyl triterpenoids with HIV maturation inhibitory activity” (priority 2012, dated 2014).

Counter-ions that a name gives are not always drawn.

The test system of this assay is recombinant NL4-3 virus (Renilla luciferase, Gag P373S). Description: HIV cell culture assay (luciferase reporter, MT-2 cells). It is filed as cell-based. The settings on record: Renilla, NL43, MT-2 cells infected for 4-5 days with NLRluc recombinants; luciferase activity. How it is done:
MT-2 cells and 293T cells were obtained from the NIH AIDS Research and Reference Reagent Program. MT-2 cells were propagated in RPMI 1640 media supplemented with 10% heat inactivated fetal bovine serum, […]. The 293T cells were propagated in DMEM media supplemented with 10% heat inactivated fetal bovine serum (FBS), 100 units/ml penicillin G and 100 μg/ml streptomycin. The proviral DNA clone of NL4-3 was obtained from the NIH AIDS Research and Reference Reagent Program. A recombinant NL4-3 virus, in which a section of the nef gene from NL4-3 was replaced with the Renilla luciferase gene, was used as a reference virus. In addition, residue Gag P373 was converted to P373S. Briefly, the recombinant virus was prepared by transfection of the altered proviral clone of NL4-3. Transfections were performed in 293T cells using LipofectAMINE PLUS from Invitrogen (Carlsbad, Calif.), according to manufacturer's instruction. The virus was titered in MT-2 cells using luciferase enzyme activity as a marker. Luciferase was quantitated using the Dual Luciferase kit from Promega (Madison, Wis.), with modifications to the manufacturer's protocol. The diluted Passive Lysis solution was pre-mixed with the re-suspended Luciferase Assay Reagent and the re-suspended Stop & Glo Substrate (2:1:1 ratio). Fifty (50) μL of the mixture was added to each aspirated well on assay plates and luciferase activity was measured immediately on a Wallac TriLux (Perkin-Elmer). Antiviral activities of inhibitors toward the recombinant virus were quantified by measuring luciferase activity in cells infected for 4-5 days with NLRluc recombinants in the presence serial dilutions of the inhibitor.

`C=C(C)[C@@H]1CC[C@]2(NCCN3CCOCC3)CC[C@]3(C)[C@H](CC[C@@H]4[C@@]5(C)CC=C(C6=CCC(C(=O)O)CC6)C(C)(C)[C@@H]5CC[C@]43C)[C@@H]12` (stereo partly drawn) [Example 14, 4-((1R,3aS,5aR,5bR,7aR,11aS,11bR,13aR,13bR)-5a,5b,8,8,11a-pentamethyl-3a-((2-morpholinoethyl)amino)-1-(prop-1-en-2-yl)-2,3,3a,4,5,5a,5b,6,7,7a,8,11,11a,11b,12,13,13a,13b-octadecahydro-1H-cyclopenta[a]chrysen-9-yl)cyclohex-3-enecarboxylic acid, TFA]: the EC50 was 5.61 nM.
Consider `C=C(C)[C@@H]1CC[C@]2(NCCN3CCC(S(C)(=O)=O)CC3)CC[C@]3(C)[C@H](CC[C@@H]4[C@@]5(C)CC=C(C6=CC[C@H](C(=O)O)CC6)C(C)(C)[C@@H]5CC[C@]43C)[C@@H]12` [Example 15, (R)-4-((1R,3aS,5aR,5bR,7aR,11aS,11bR,13aR,13bR)-5a,5b,8,8,11a-pentamethyl-3a-((2-(4-(methylsulfonyl)piperidin-1-yl)ethyl)amino)-1-(prop-1-en-2-yl)-2,3,3a,4,5,5a,5b,6,7,7a,8,11,11a,11b,12,13,13a,13b-octadecahydro-1H-cyclopenta[a]chrysen-9-yl)cyclohex-3-enecarboxylic acid, TFA], for which the concentration for a half-maximal effect (EC50) was 1.36 nM.
As to `C=C(C)[C@@H]1CC[C@]2(NCCN3CCC(S(C)(=O)=O)CC3)CC[C@]3(C)[C@H](CC[C@@H]4[C@@]5(C)CC=C(C6=CC[C@@H](C(=O)O)CC6)C(C)(C)[C@@H]5CC[C@]43C)[C@@H]12` [Example 16, (S)-4-((1R,3aS,5aR,5bR,7aR,11aS,11bR,13aR,13bR)-5a,5b,8,8,11a-pentamethyl-3a-((2-(4-(methylsulfonyl)piperidin-1-yl)ethyl)amino)-1-(prop-1-en-2-yl)-2,3,3a,4,5,5a,5b,6,7,7a,8,11,11a,11b,12,13,13a,13b-octadecahydro-1H-cyclopenta[a]chrysen-9-yl)cyclohex-3-enecarboxylic acid, TFA], the concentration for a half-maximal effect (EC50) was found to be 3.05 nM.
Turning to `C=C(C)[C@@H]1CC[C@]2(N)CC[C@]3(C)[C@H](CC[C@@H]4[C@@]5(C)CC=C(C6=CCC(C(=O)O)CC6)C(C)(C)[C@@H]5CC[C@]43C)[C@@H]12` (stereo partly drawn) [Example 17, 4-((1R,3aS,5aR,5bR,7aR,11aS,11bR,13aR,13bR)-3a-amino-5a,5b,8,8,11a-pentamethyl-1-(prop-1-en-2-yl)-2,3,3a,4,5,5a,5b,6,7,7a,8,11,11a,11b,12,13,13a,13b-octadecahydro-1H-cyclopenta[a]chrysen-9-yl)cyclohex-3-enecarboxylic acid, HCl], the EC50 is 0.877 nM.
For the compound `C=C(C)[C@@H]1CC[C@]2(NCCO)CC[C@]3(C)[C@H](CC[C@@H]4[C@@]5(C)CC=C(C6=CCC(C(=O)O)CC6)C(C)(C)[C@@H]5CC[C@]43C)[C@@H]12` (stereo partly drawn) [Example 18, 4-((1R,3aS,5aR,5bR,7aR,11aS,11bR,13aR,13bR)-3a-((2-hydroxyethyl)amino)-5a,5b,8,8,11a-pentamethyl-1-(prop-1-en-2-yl)-2,3,3a,4,5,5a,5b,6,7,7a,8,11,11a,11b,12,13,13a,13b-octadecahydro-1H-cyclopenta[a]chrysen-9-yl)cyclohex-3-enecarboxylic acid, TFA], the concentration for a half-maximal effect (EC50) amounted to 1.38 nM.
Take `C=C(C)[C@@H]1CC[C@]2(NCCO)CC[C@]3(C)[C@H](CC[C@@H]4[C@@]5(C)CC=C(C6=CC[C@H](C(=O)O)CC6)C(C)(C)[C@@H]5CC[C@]43C)[C@@H]12` [Example 19, (R)-4-((1R,3aS,5aR,5bR,7aR,11aS,11bR,13aR,13bR)-3a-((2-hydroxyethyl)amino)-5a,5b,8,8,11a-pentamethyl-1-(prop-1-en-2-yl)-2,3,3a,4,5,5a,5b,6,7,7a,8,11,11a,11b,12,13,13a,13b-octadecahydro-1H-cyclopenta[a]chrysen-9-yl)cyclohex-3-enecarboxylic acid, TFA]: the concentration giving a half-maximal response (EC50) came out at 1.14 nM.
With `C=C(C)[C@@H]1CC[C@]2(NCCO)CC[C@]3(C)[C@H](CC[C@@H]4[C@@]5(C)CC=C(C6=CC[C@@H](C(=O)O)CC6)C(C)(C)[C@@H]5CC[C@]43C)[C@@H]12` [Example 20, (S)-4-((1R,3aS,5aR,5bR,7aR,11aS,11bR,13aR,13bR)-3a-((2-hydroxyethyl)amino)-5a,5b,8,8,11a-pentamethyl-1-(prop-1-en-2-yl)-2,3,3a,4,5,5a,5b,6,7,7a,8,11,11a,11b,12,13,13a,13b-octadecahydro-1H-cyclopenta[a]chrysen-9-yl)cyclohex-3-enecarboxylic acid, TFA], the concentration giving a half-maximal response (EC50) is 1.57 nM.
Next, `C=C(C)[C@@H]1CC[C@]2(NCCN3CCS(=O)(=O)CC3)CC[C@]3(C)[C@H](CC[C@@H]4[C@@]5(C)CC=C(C6=CCC(C(=O)NS(C)(=O)=O)CC6)C(C)(C)[C@@H]5CC[C@]43C)[C@@H]12` (stereo partly drawn) [Example 21, 4-((1R,3aS,5aR,5bR,7aR,11aS,11bR,13aR,13bR)-3a-((2-(1,1-dioxidothiomorpholino)ethyl)amino)-5a,5b,8,8,11a-pentamethyl-1-(prop-1-en-2-yl)-2,3,3a,4,5,5a,5b,6,7,7a,8,11,11a,11b,12,13,13a,13b-octadecahydro-1H-cyclopenta[a]chrysen-9-yl)-N-(methylsulfonyl)cyclohex-3-enecarboxamide, TFA]: 1.8 nM.
For `C=C(C)[C@@H]1CC[C@]2(NC(=O)OC(C)(C)C)CC[C@]3(C)[C@H](CC[C@@H]4[C@@]5(C)CC=C(C6=CC7(C6)CC(C(=O)O)(C(=O)O)C7)C(C)(C)[C@@H]5CC[C@]43C)[C@@H]12` [Example A1, 6-((1R,3aS,5aR,5bR,7aR,11aS,11bR,13aR,13bR)-3a-((tert-butoxycarbonyl)amino)-5a,5b,8,8,11a-pentamethyl-1-(prop-1-en-2-yl)-2,3,3a,4,5,5a,5b,6,7,7a,8,11,11a,11b,12,13,13a,13b-octadecahydro-1H-cyclopenta[a]chrysen-9-yl)spiro[3.3]hept-5-ene-2,2-dicarboxylic acid] the value was 570 nM.
For the compound `C=C(C)[C@@H]1CC[C@]2(NCCN(c3ccccc3)S(=O)(=O)C(F)(F)F)CC[C@]3(C)[C@H](CC[C@@H]4[C@@]5(C)CC=C(C6=CC7(C6)CC(C(=O)O)(C(=O)O)C7)C(C)(C)[C@@H]5CC[C@]43C)[C@@H]12` [Example A2, 6-((1R,3aS,5aR,5bR,7aR,11aS,11bR,13aR,13bR)-5a,5b,8,8,11a-pentamethyl-1-(prop-1-en-2-yl)-3a-((2-(1,1,1-trifluoro-N-phenylmethylsulfonamido)ethyl)amino)-2,3,3a,4,5,5a,5b,6,7,7a,8,11,11a,11b,12,13,13a,13b-octadecahydro-1H-cyclopenta[a]chrysen-9-yl)spiro[3.3]hept-5-ene-2,2-dicarboxylic acid], the EC50 turned out to be 1070 nM.
As to `C=C(C)[C@@H]1CC[C@]2(NCCN(c3ccc(Cl)cn3)S(=O)(=O)C(F)(F)F)CC[C@]3(C)[C@H](CC[C@@H]4[C@@]5(C)CC=C(C6=CC7(C6)CC(C(=O)O)(C(=O)O)C7)C(C)(C)[C@@H]5CC[C@]43C)[C@@H]12` [Example A3, 6-((1R,3 aS,5aR,5bR,7aR,11aS,11bR,13 aR,13bR)-3a-((2-(N-(5-chloropyridin-2-yl)-1,1,1-trifluoromethylsulfonamido)ethyl)amino)-5a,5b,8,8,11a-pentamethyl-1-(prop-1-en-2-yl)-2,3,3a,4,5,5a,5b,6,7,7a,8,11,11a,11b,12,13,13a,13b-octadecahydro-1H-cyclopenta[a]chrysen-9-yl)spiro[3.3]hept-5-ene-2,2-dicarboxylic acid], the EC50 was 1750 nM.
As for `C=C(C)[C@@H]1CC[C@]2(NCCN3CCOCC3)CC[C@]3(C)[C@H](CC[C@@H]4[C@@]5(C)CC=C(C6=CC7(C6)CC(C(=O)O)(C(=O)O)C7)C(C)(C)[C@@H]5CC[C@]43C)[C@@H]12` [Example A4, 6-((1R,3aS,5aR,5bR,7aR,11aS,11bR,13aR,13bR)-5a,5b,8,8,11a-pentamethyl-3a-((2-morpholinoethyl)amino)-1-(prop-1-en-2-yl)-2,3,3a,4,5,5a,5b,6,7,7a,8,11,11a,11b,12,13,13a,13b-octadecahydro-1H-cyclopenta[a]chrysen-9-yl)spiro[3.3]hept-5-ene-2,2-dicarboxylic acid], the EC50 amounted to 100 nM.
Next, `C=C(C)[C@@H]1CC[C@]2(NCCN3CCS(=O)(=O)CC3)CC[C@]3(C)[C@H](CC[C@@H]4[C@@]5(C)CC=C(C6=CCC(C#N)(C(=O)O)CC6)C(C)(C)[C@@H]5CC[C@]43C)[C@@H]12` (stereo partly drawn) [Example A5, 1-cyano-4-((1R,3aS,5aR,5bR,7aR,11aS,11bR,13aR,13bR)-3a-((2-(1,1-dioxidothiomorpholino)ethyl)amino)-5a,5b,8,8,11a-pentamethyl-1-(prop-1-en-2-yl)-2,3,3a,4,5,5a,5b,6,7,7a,8,11,11a,11b,12,13,13a,13b-octadecahydro-1H-cyclopenta[a]chrysen-9-yl)cyclohex-3-enecarboxylic acid]: 4.26 nM.
